The values below come from US8143288B2, “Inhibitors of HCV replication” (priority 2005, dated 2012).

For the assay, the system named is HCV 1b-377-neo replicon cells. As to the kind of experiment: HCV replicon FRET assay. In kind it is cell-based. Conditions: Hepatitis C virus; HCV replicon; read-out: Activity (EC50). In general terms: In antiviral work, replicon cells carry a viral genome segment that copies itself.

For the compound `COCC(=O)N1CCC[C@H]1C(=O)Nc1ccc(/C=C/c2ccc(NC(=O)[C@@H]3CCCN3C(=O)c3cccnc3)cc2)cc1` [Example 87], the EC50 (commonly the midpoint of the concentration-response curve) was in the range of 0.1 to 90 nM.

`O=C(Nc1ccc(/C=C/c2ccc(NC(=O)[C@@H]3CCCN3C(=O)c3cccc4cc[nH]c34)cc2)cc1)[C@@H]1CCCN1C(=O)c1cccc2cc[nH]c12` [Example 149]: the EC50 was 100 to 1000 nM.

`CCc1cccc(CC)c1C(=O)N1CCC[C@H]1C(=O)Nc1ccc(/C=C/c2ccc(NC(=O)[C@@H]3CCCN3C(=O)c3c(CC)cccc3CC)cc2)cc1` [Example 205]: the EC50 lay within 1000 to 10000 nM.

On to `O=C(Nc1ccc(/C=C/c2ccc(NC(=O)[C@@H]3CCCN3S(=O)(=O)c3ccccc3OC(F)(F)F)cc2)cc1)[C@@H]1CCCN1S(=O)(=O)c1ccccc1OC(F)(F)F` [Example 280], for which the EC50 was 1000 to 10000 nM.

`Cc1ncccc1C(=O)N1CCC[C@H]1C(=O)Nc1ccc(/C=C/c2ccc(NC(=O)[C@@H]3CCCN3C(=O)c3cccnc3C)cc2)cc1` [Example 76]: the EC50 was 100 to 1000 nM.

Consider `Cc1cc(CC(=O)N2CCC[C@H]2C(=O)Nc2ccc(/C=C/c3ccc(NC(=O)[C@@H]4CCCN4C(=O)CN(C)C)cc3)cc2)on1` [Example 97], for which the concentration giving a half-maximal response (EC50) was in the range of 0.1 to 90 nM.

For the compound `Cn1cnc(CC(=O)N2CCC[C@H]2C(=O)Nc2ccc(/C=C/c3ccc(NC(=O)[C@@H]4CCCN4C(=O)Cc4cn(C)cn4)cc3)cc2)c1` [Example 41], the EC50 was in the range of 0.1 to 90 nM.

On to `COCC(=O)N1CCC[C@H]1C(=O)Nc1ccc(/C=C/c2ccc(NC(=O)[C@@H]3CCCN3C(=O)c3ccc(N(C)C)cc3)cc2)cc1` [Example 91], for which the EC50 is 100 to 1000 nM.

Take `COCC(=O)N1CCC[C@H]1C(=O)Nc1ccc(/C=C/c2ccc(NC(=O)[C@@H]3CCCN3C(=O)COC)cc2)cc1` [Example 47]: the EC50 was 100 to 1000 nM.

Regarding `CC(C)(C)OC(=O)N1CCC[C@H]1C(=O)Nc1ccc(/C=C/c2ccc(NC(=O)[C@@H]3CCCN3)cc2)cc1` [Example 22], the EC50 lay in the range of 1000 to 10000 nM.

Consider `CC(C)NC(=O)O[C@@H]1C[C@@H](C(=O)Nc2ccc(/C=C/c3ccc(NC(=O)[C@@H]4C[C@@H](O)CN4C(=O)OCc4ccccc4)cc3)cc2)N(C(=O)OCc2ccccc2)C1` [Example 246], for which the EC50 fell in the range of 1000 to 10000 nM.

Regarding `O=C(Nc1ccc(/C=C/c2ccc(NC(=O)[C@@H]3Cc4ccccc4CN3C(=O)OCc3ccccc3)cc2)cc1)[C@@H]1Cc2ccccc2CN1C(=O)OCc1ccccc1` [Example 10], the EC50 lay in the range of 1000 to 10000 nM.

Take `CCCOc1ccccc1C(=O)N1C[C@@H](N(C)C)C[C@H]1C(=O)Nc1ccc(CCc2ccc(NC(=O)[C@@H]3C[C@H](N(C)C)CN3C(=O)c3ccccc3OCCC)cc2)cc1` [Example 224]: the EC50 was 1000 to 10000 nM.

Turning to `O=C(Nc1ccc(/C=C/c2ccc(NC(=O)[C@@H]3CCCN3C(=O)c3c[nH]c4ccccc34)cc2)cc1)[C@@H]1CCCN1C(=O)c1c[nH]c2ccccc12` [Example 209], the EC50 is 100 to 1000 nM.

As to `[N-]=[N+]=Nc1cccc(CC(=O)N2CCC[C@H]2C(=O)Nc2ccc(/C=C/c3ccc(NC(=O)[C@@H]4CCCN4C(=O)CCCC[C@@H]4SC[C@@H]5NC(=O)N[C@@H]54)cc3)cc2)c1` [Example 127], the EC50 is 100 to 1000 nM.

As for `CC(=O)N1C[C@H](O)C[C@H]1C(=O)Nc1ccc(/C=C/c2ccc(NC(=O)[C@@H]3CCCN3C(=O)Cc3ccccc3)cc2)cc1` [Example 272], the EC50 was in the range of 100 to 1000 nM.

On to `Cc1nc(-c2cccnc2)sc1C(=O)N1CCC[C@H]1C(=O)Nc1ccc(/C=C/c2ccc(NC(=O)[C@@H]3CCCN3C(=O)c3sc(-c4cccnc4)nc3C)cc2)cc1` [Example 185], for which the EC50 was 1000 to 10000 nM.

`O=C(Nc1ccc(/C=C/c2ccc(NC(=O)[C@@H]3CCCN3C(=O)Cc3ccccc3)cc2)cc1)[C@@H]1CCCN1` [Example 252]: the EC50 is 1000 to 10000 nM.

Take `COc1ccccc1C(=O)N1CCC[C@H]1C(=O)Nc1ccc(/C=C/c2ccc(NC(=O)[C@@H]3CCCN3C(=O)Cc3cccnc3)cc2)cc1` [Example 142]: the EC50 lay within 100 to 1000 nM.

In the case of `CN(C)[C@H]1C[C@@H](C(=O)Nc2ccc(/C=C/c3ccc(NC(=O)[C@@H]4C[C@H](N(C)C)CN4C(=O)OCc4ccccc4)cc3)cc2)N(C(=O)OCc2ccccc2)C1` [Example 223], the EC50 was in the range of 0.1 to 90 nM.

`[N-]=[N+]=Nc1ccc(C(=O)N2CCC[C@H]2C(=O)Nc2ccc(/C=C/c3ccc(NC(=O)[C@@H]4CCCN4C(=O)Cc4ccccc4)cc3)cc2)cc1` [Example 118]: the EC50 was in the range of 0.1 to 90 nM.

Turning to `O=C(Nc1ccc(/C=C/c2ccc(NC(=O)[C@@H]3CCCN3C(=O)c3cn[nH]c3)cc2)cc1)[C@@H]1CCCN1C(=O)c1cn[nH]c1` [Example 77], the EC50 lay within 0.1 to 90 nM.

For the compound `Cc1ccsc1C(=O)N1CCC[C@H]1C(=O)Nc1ccc(/C=C/c2ccc(NC(=O)[C@@H]3CCCN3C(=O)c3sccc3C)cc2)cc1` [Example 198], the EC50 was 100 to 1000 nM.

Turning to `O=C(Cc1cccnc1)Nc1ccc(/C=C/c2ccc(NC(=O)[C@@H]3CCCN3C(=O)Cc3cccnc3)cc2)cc1` [Example 270], the EC50 lay within 0.1 to 90 nM.

Consider `Cc1nc(C(F)(F)F)ccc1C(=O)N1CCC[C@H]1C(=O)Nc1ccc(/C=C/c2ccc(NC(=O)[C@@H]3CCCN3C(=O)c3ccc(C(F)(F)F)nc3C)cc2)cc1` [Example 194], for which the EC50 was in the range of 100 to 1000 nM.

As to `CN(C)CC(=O)N1CCC[C@H]1C(=O)Nc1ccc(/C=C/c2ccc(NC(=O)[C@@H]3CCCN3C(=O)CN(C)C)cc2)cc1` [Example 28], the EC50 fell in the range of 100 to 1000 nM.

Turning to `CCn1nc(C)cc1C(=O)N1CCC[C@H]1C(=O)Nc1ccc(/C=C/c2ccc(NC(=O)[C@@H]3CCCN3C(=O)c3cc(C)nn3CC)cc2)cc1` [Example 155], the EC50 was 0.1 to 90 nM.

Turning to `O=C(Nc1ccc(/C=C/c2ccc(NC(=O)[C@@H]3CCCN3C(=O)Cc3cccc4ccccc34)cc2)cc1)[C@@H]1CCCN1C(=O)Cc1cccc2ccccc12` [Example 181], the EC50 lay in the range of 100 to 1000 nM.

Take `CCc1ccccc1C(=O)N1C[C@@H](N(C)C)C[C@H]1C(=O)Nc1ccc(/C=C/c2ccc(NC(=O)[C@@H]3C[C@H](N(C)C)CN3C(=O)c3ccccc3CC)cc2)cc1` [Example 228]: the EC50 was 1000 to 10000 nM.

`O=C(Nc1ccc(/C=C/c2ccc(NC(=O)[C@@H]3CCCN3C(=O)c3cccnc3Sc3ccccc3)cc2)cc1)[C@@H]1CCCN1C(=O)c1cccnc1Sc1ccccc1` [Example 196]: the concentration giving a half-maximal response (EC50) lay within 1000 to 10000 nM.

Regarding `CCc1cc(Br)ccc1S(=O)(=O)N1CCC[C@H]1C(=O)Nc1ccc(/C=C/c2ccc(NC(=O)[C@@H]3CCCN3S(=O)(=O)c3ccc(Br)cc3CC)cc2)cc1` [Example 278], the half-maximal effective concentration (EC50) was 1000 to 10000 nM.

Consider `O=C(Nc1ccc(/C=C/c2ccc(NC(=O)[C@@H]3CCCN3C(=O)Cc3ccccc3)cc2)cc1)c1ccccc1Oc1ccccc1` [Example 266], for which the EC50 fell in the range of 1000 to 10000 nM.

For `COc1ccc(C)cc1C(=O)N1CCC[C@H]1C(=O)Nc1ccc(/C=C/c2ccc(NC(=O)[C@@H]3CCCN3C(=O)c3cc(C)ccc3OC)cc2)cc1` [Example 139], the EC50 was in the range of 100 to 1000 nM.

On to `O=C(Nc1ccc(/C=C/c2ccc(NC(=O)[C@@H]3CCCN3C(=O)N3CCCC3)cc2)cc1)[C@@H]1CCCN1C(=O)N1CCCC1` [Example 286], for which the EC50 lay in the range of 100 to 1000 nM.

In the case of `O=C(Nc1ccc(/C=C/c2ccc(NC(=O)[C@@H]3CCCN3C(=O)c3ccno3)cc2)cc1)[C@@H]1CCCN1C(=O)c1ccno1` [Example 79], the EC50 was in the range of 0.1 to 90 nM.
